Measurements published in PMC7179312 (Antimicrobial Agents and Chemotherapy, 2020).

What was measured:
[1] = system: P. aeruginosa PAM1154 carrying pUCP24 vector (PAM4175); assay: MIC, CLSI broth microdilution; type: cell-based; conditions: Pseudomonas aeruginosa, drug alone
From the text: The effects of KPC mutations on resistance to various antibiotics were investigated. For these studies, pUCP24 plasmids carrying wild-type and mutant blaKPC-2 genes as well as the pUCP24 vector were transformed into PAM1154, an efflux-deficient strain of Pseudomonas aeruginosa. In this host, the effect of β-lactamases on β-lactam MIC is amplified due to the slowed uptake of β-lactams across the low-permeability outer membrane without interference by efflux of either β-lactams or BLIs. Consequently, this host allows detection of β-lactamase activity (as an MIC increase) of low-catalytic-efficiency enzymes that rely heavily on the low permeability of the outer membrane. Using the strain that lacks efflux pumps ensures no interference from efflux in interpreting results. We next evaluated the steady-state protein expression levels in bacterial cells. […] The observed discrepancy with our results could be attributed to the difference in either the expression vector or host bacteria.
For microbiological studies, wild-type blaKPC-2 and its mutant variants were cloned into the shuttle vector pUCP24. Resulting plasmids were transformed in the efflux-deficient strain of P. aeruginosa PAM1154 using selection on 15 μg/ml of gentamicin. Using a strain of P. aeruginosa as opposed to E. coli as a host for various cloned genes was based on the following consideration. As well documented elsewhere ([41]), P. aeruginosa has a low-permeability outer membrane; consequently, the effect of β-lactamases on MIC is amplified in P. aeruginosa compared to that in E. coli due to the slowed uptake of β-lactams. Thus, this host is appropriate to detect β-lactamase activity (as an MIC increase) of low-catalytic-efficiency enzymes that rely heavily on low permeability of the outer membrane. […] MICs were determined using the Clinical and Laboratory Standards Institute (CLSI) broth microdilution method as described in CLSI document M07-A11 ([42]). Potentiation of antibiotic activity by various BLIs in bacterial strains carrying wild-type (WT) and mutant KPC-2 genes was performed using standard checkerboard methodology ([43]). BLI potency was defined as PV50 (PV, potentiation value). PV50 is the minimal concentration of a BLI that is required to reduce the antibiotic MIC to the middle of the MIC range (E50) where the highest MIC is the MIC for a KPC-producing strain with no inhibitor added and the lowest MIC is the MIC for the vector-only strain, corresponding to the complete inhibition of KPC. E50 is calculated as the square root of the product of the antibiotic MICs for the KPC-producing and the vector-only strains.

[2] = system: P. aeruginosa PAM1154 carrying pUCP24 vector (PAM4175); assay: Checkerboard potentiation of antibiotic activity by BLIs; type: cell-based, Pseudomonas aeruginosa
KPC-2 L169P = target: T1, KPC-2 L169P (Klebsiella pneumoniae, UniProt Q9F663, L168P); assay: Steady-state Ki with nitrocefin as substrate (method of Waley); type: biochemical; conditions: NCF substrate, 10 min preincubation, 37°C
T1 construct: 6xHis (C); made in house; host or cells: E. coli (pET28a construct; BL21(DE3) pLys is named only for wild type and D179Y)

KPC-2 [3] = target: T2, KPC-2 (Klebsiella pneumoniae, UniProt Q9F663); assay: IC50 of inhibition of ceftazidime hydrolysis; type: biochemical
T2 construct: 6xHis (C); made in house; host or cells: E. coli BL21(DE3) pLys, pET28a
Description: (§1) Enzymes were mixed with BLIs at concentrations varying from 160 to 0.0027 μM in buffer A and incubated for 10 min, and 100 μM (for wild-type KPC-2) or 10 μM (for the D179Y mutant) CFTZ was subsequently added. Substrate cleavage profiles were recorded at 260 nm every 10 s for 10 min. Initial rates of reaction were calculated and exported to Prism software to calculate IC50s using the “dose-response – inhibition, variable slope (four parameters)” equation.

KPC-2 D179Y = target: T3, KPC-2 D179Y (Klebsiella pneumoniae, UniProt Q9F663, D178Y); assay: IC50 of inhibition of ceftazidime hydrolysis; type: biochemical
T3 construct: 6xHis (C); made in house; host or cells: E. coli BL21(DE3) pLys, pET28a
Description: as §1

KPC-2 [4] = target: T2, KPC-2; conditions: NCF hydrolysis; cited from earlier work

SMILES	MIC [1] [µg/mL]	Antibiotic MIC with avibactam at 4 μg/ml ([2]; avibactam 4 μg/ml) [µg/mL]	Antibiotic MIC, No BLI ([2]; no BLI) [µg/mL]	Antibiotic MIC with vaborbactam at 8 μg/ml ([2]; vaborbactam 8 μg/ml) [µg/mL]	Ki (KPC-2 L169P) [nM]	IC50 (KPC-2 [3]) [nM]	IC50 (KPC-2 D179Y) [nM]	Kd (KPC-2 [4]) [nM]	k2/K (KPC-2 [4])	k−2 (KPC-2 [4])
CO/N=C(\C(=O)N[C@@H]1C(=O)N2C(C(=O)[O-])=C(C[N+]3(C)CCCC3)CS[C@H]12)c1csc(N)n1 [Cefepime, cefepime]	0.125	0.125	0.125	0.125						
O=C(O)C[C@@H]1CC[C@H](NC(=O)Cc2cccs2)B(O)O1 [Vaborbactam, vaborbactam]	> 256				190 ± 20	940 ± 20	1900 ± 300	8	5.5 ± 0.5 × 10^3 M^−1 s^−1	4.3 ± 0.6 × 10^−5 s^−1
